From patent US20110136666A1, “CHEMICAL COMPOUNDS” (SYNGENTA CROP PROTECTION, INC., priority 2008, published 2011) come the findings set out here.

The subject of the first assay is Alopecurus myosuroides (ALOMY). Nature of the assay: Pre-emergence biological efficacy, glasshouse pot test. The format is in vivo. To be noted: 312 h, 250 g/ha, after 13 days, 100=total damage, 0=no damage, read-out: Percentage damage caused to weed species ALOMY. The method, then: (§1) Seeds of Alopecurus myosuroides (ALOMY), Setaria faberi (SETFA), Echinochloa crus-galli (ECHCG), Solanum nigrum (SOLNI), Amaranthus retroflexus (AMARE) and Ipomea hederaceae (IPOHE) were sown in standard soil in pots. After cultivation for one day under controlled conditions in a glasshouse (at 24/16° C., day/night; 14 hours light; 65% humidity), the plants were sprayed with an aqueous spray solution derived from the formulation of the technical active ingredient in acetone/water (50:50) solution containing 0.5% Tween 20 (polyoxyethylene sorbitan monolaurate, CAS RN 9005-64-5) to give a final dose of 250 or 1000 g/ha of test compound.
(§2) The test plants were then grown under controlled conditions in the glasshouse (at 24/16° C., day/night; 14 hours light; 65% humidity) and watered twice daily. After 13 days the test was evaluated (100=total damage to plant; 0=no damage to plant).
`COC(=O)c1nc(-c2ccsc2Cl)nc(N)c1Cl` [Compound 2-18, 4-Amino-5-chloro-2-(2-chlorothiophen-3-yl)-6-methoxycarbonyl pyrimidine]: the pest or weed control at 250 g/ha was 0%.
Same read-out and setting: the same measure for `COC(=O)c1nc(-c2cc3cc(C)ccc3s2)nc(N)c1Cl` [Compound 2-55, 4-Amino-5-chloro-6-methoxycarbonyl-2-(5-methylbenzothiophen-2-yl)-pyrimidine]: 0%.

The subject of another assay is Amaranthus retroflexus (AMARE). The assay is described as above. The format is in vivo. To be noted: 312 h, 250 g/ha, after 13 days, 100=total damage, 0=no damage, read-out: Percentage damage caused to weed species AMARE. The method, then: as §1, §2
Consider `COC(=O)c1nc(-c2ccsc2Cl)nc(N)c1Cl` [Compound 2-18, 4-Amino-5-chloro-2-(2-chlorothiophen-3-yl)-6-methoxycarbonyl pyrimidine], for which the pest or weed control at 250 g/ha was 0%.
`COC(=O)c1nc(-c2cc3cc(C)ccc3s2)nc(N)c1Cl` [Compound 2-55, 4-Amino-5-chloro-6-methoxycarbonyl-2-(5-methylbenzothiophen-2-yl)-pyrimidine]: the pest or weed control at 250 g/ha amounted to 10%.

The test system of the next assay is Echinochloa crus-galli (ECHCG). The assay is described as above. The format is in vivo. To be noted: 312 h, 250 g/ha, after 13 days, 100=total damage, 0=no damage, read-out: Percentage damage caused to weed species ECHCG. The method, then: as §1, §2
`COC(=O)c1nc(-c2ccsc2Cl)nc(N)c1Cl` [Compound 2-18, 4-Amino-5-chloro-2-(2-chlorothiophen-3-yl)-6-methoxycarbonyl pyrimidine]: the pest or weed control at 250 g/ha turned out to be 0%.
Turning to `COC(=O)c1nc(-c2cc3cc(C)ccc3s2)nc(N)c1Cl` [Compound 2-55, 4-Amino-5-chloro-6-methoxycarbonyl-2-(5-methylbenzothiophen-2-yl)-pyrimidine], the pest or weed control at 250 g/ha was determined as 0%.

In another assay the test system is Ipomea hederaceae (IPOHE). The description is as above. It is filed as in vivo. The following applies: Ipomoea hederacea, 312 h, 250 g/ha, after 13 days, 100=total damage, 0=no damage, read-out: Percentage damage caused to weed species IPOHE. The method, then:
as §1, §2
On to `COC(=O)c1nc(-c2ccsc2Cl)nc(N)c1Cl` [Compound 2-18, 4-Amino-5-chloro-2-(2-chlorothiophen-3-yl)-6-methoxycarbonyl pyrimidine], for which the pest or weed control at 250 g/ha was found to be 0%.
`COC(=O)c1nc(-c2cc3cc(C)ccc3s2)nc(N)c1Cl` [Compound 2-55, 4-Amino-5-chloro-6-methoxycarbonyl-2-(5-methylbenzothiophen-2-yl)-pyrimidine]: the pest or weed control at 250 g/ha came out at 10%.

The subject of the next assay is Setaria faberi (SETFA). Described as above. The format is in vivo. To be noted: 312 h, 250 g/ha, after 13 days, 100=total damage, 0=no damage, read-out: Percentage damage caused to weed species SETFA. The method, then:
as §1, §2
For `COC(=O)c1nc(-c2ccsc2Cl)nc(N)c1Cl` [Compound 2-18, 4-Amino-5-chloro-2-(2-chlorothiophen-3-yl)-6-methoxycarbonyl pyrimidine], the pest or weed control at 250 g/ha came out at 0%.
Consider `COC(=O)c1nc(-c2cc3cc(C)ccc3s2)nc(N)c1Cl` [Compound 2-55, 4-Amino-5-chloro-6-methoxycarbonyl-2-(5-methylbenzothiophen-2-yl)-pyrimidine], for which the pest or weed control at 250 g/ha was 0%.

The subject of the next assay is Solanum nigrum (SOLNI). The assay is described as above. To be noted: 312 h, 250 g/ha, after 13 days, 100=total damage, 0=no damage, read-out: Percentage damage caused to weed species SOLNI. The format is in vivo. The method, then:
as §1, §2
As for `COC(=O)c1nc(-c2ccsc2Cl)nc(N)c1Cl` [Compound 2-18, 4-Amino-5-chloro-2-(2-chlorothiophen-3-yl)-6-methoxycarbonyl pyrimidine], the pest or weed control at 250 g/ha was 0%.
On the same count and under the same terms, as for `COC(=O)c1nc(-c2cc3cc(C)ccc3s2)nc(N)c1Cl` [Compound 2-55, 4-Amino-5-chloro-6-methoxycarbonyl-2-(5-methylbenzothiophen-2-yl)-pyrimidine], the figure is 0%.

For another assay, the system named is Alopecurus myosuroides (ALOMY). Kind of assay: Post-emergence biological efficacy, glasshouse pot test. The format is in vivo. To be noted: 312 h, 250 g/ha, after 13 days, 100=total damage, 0=no damage, read-out: Percentage damage caused to weed species ALOMY. The method, then: as §1, with “8 days” for “one day”
(§3) The test plants were then grown on under controlled conditions in a glasshouse (at 24/16° C., day/night; 14 hours light; 65% humidity) and watered twice daily. After 13 days the test was evaluated (100=total damage to plant; 0=no damage to plant).
As to `COC(=O)c1nc(-c2ccsc2Cl)nc(N)c1Cl` [Compound 2-18, 4-Amino-5-chloro-2-(2-chlorothiophen-3-yl)-6-methoxycarbonyl pyrimidine], the pest or weed control at 250 g/ha came to 10%.
On the same count and under the same terms, the same measure for `COC(=O)c1nc(-c2cc3cc(C)ccc3s2)nc(N)c1Cl` [Compound 2-55, 4-Amino-5-chloro-6-methoxycarbonyl-2-(5-methylbenzothiophen-2-yl)-pyrimidine]: 10%.

The subject of another assay is Amaranthus retroflexus (AMARE). The description is as above. It is filed as in vivo. The following applies: 312 h, 250 g/ha, after 13 days, 100=total damage, 0=no damage, read-out: Percentage damage caused to weed species AMARE. The method, then:
as §1, with “8 days” for “one day”
as §3
In the case of `COC(=O)c1nc(-c2ccsc2Cl)nc(N)c1Cl` [Compound 2-18, 4-Amino-5-chloro-2-(2-chlorothiophen-3-yl)-6-methoxycarbonyl pyrimidine], the pest or weed control at 250 g/ha came out at 20%.
With `COC(=O)c1nc(-c2cc3cc(C)ccc3s2)nc(N)c1Cl` [Compound 2-55, 4-Amino-5-chloro-6-methoxycarbonyl-2-(5-methylbenzothiophen-2-yl)-pyrimidine], the pest or weed control at 250 g/ha was determined as 70%.

The test system of the next assay is Echinochloa crus-galli (ECHCG). The description is as above. The format is in vivo. To be noted: 312 h, 250 g/ha, after 13 days, 100=total damage, 0=no damage, read-out: Percentage damage caused to weed species ECHCG. The method, then: as §1, with “8 days” for “one day”
as §3
For `COC(=O)c1nc(-c2ccsc2Cl)nc(N)c1Cl` [Compound 2-18, 4-Amino-5-chloro-2-(2-chlorothiophen-3-yl)-6-methoxycarbonyl pyrimidine], the pest or weed control at 250 g/ha amounted to 10%.
As to `COC(=O)c1nc(-c2cc3cc(C)ccc3s2)nc(N)c1Cl` [Compound 2-55, 4-Amino-5-chloro-6-methoxycarbonyl-2-(5-methylbenzothiophen-2-yl)-pyrimidine], the pest or weed control at 250 g/ha amounted to 0%.

For the next assay, the system named is Ipomea hederaceae (IPOHE). The assay is described as above. The format is in vivo. To be noted: Ipomoea hederacea, 312 h, 250 g/ha, after 13 days, 100=total damage, 0=no damage, read-out: Percentage damage caused to weed species IPONE. The method, then: as §1, with “8 days” for “one day”
as §3
Take `COC(=O)c1nc(-c2ccsc2Cl)nc(N)c1Cl` [Compound 2-18, 4-Amino-5-chloro-2-(2-chlorothiophen-3-yl)-6-methoxycarbonyl pyrimidine]: the pest or weed control at 250 g/ha is 40%.
As for `COC(=O)c1nc(-c2cc3cc(C)ccc3s2)nc(N)c1Cl` [Compound 2-55, 4-Amino-5-chloro-6-methoxycarbonyl-2-(5-methylbenzothiophen-2-yl)-pyrimidine], the pest or weed control at 250 g/ha was determined as 40%.

The next assay has as its system Setaria faberi (SETFA). The assay is described as above. The format is in vivo. To be noted: 312 h, 250 g/ha, after 13 days, 100=total damage, 0=no damage, read-out: Percentage damage caused to weed species SETFA. The method, then:
as §1, with “8 days” for “one day”
as §3
Turning to `COC(=O)c1nc(-c2ccsc2Cl)nc(N)c1Cl` [Compound 2-18, 4-Amino-5-chloro-2-(2-chlorothiophen-3-yl)-6-methoxycarbonyl pyrimidine], the pest or weed control at 250 g/ha stood at 10%.
Turning to `COC(=O)c1nc(-c2cc3cc(C)ccc3s2)nc(N)c1Cl` [Compound 2-55, 4-Amino-5-chloro-6-methoxycarbonyl-2-(5-methylbenzothiophen-2-yl)-pyrimidine], the pest or weed control at 250 g/ha stood at 0%.

For the next assay, the system named is Solanum nigrum (SOLNI). The description is as above. The following applies: 312 h, 250 g/ha, after 13 days, 100=total damage, 0=no damage, read-out: Percentage damage caused to weed species SOLNI. It is filed as in vivo. The method, then: as §1, with “8 days” for “one day”
as §3
On to `COC(=O)c1nc(-c2ccsc2Cl)nc(N)c1Cl` [Compound 2-18, 4-Amino-5-chloro-2-(2-chlorothiophen-3-yl)-6-methoxycarbonyl pyrimidine], for which the pest or weed control at 250 g/ha was found to be 0%.
Still for that read-out and setting: the same measure for `COC(=O)c1nc(-c2cc3cc(C)ccc3s2)nc(N)c1Cl` [Compound 2-55, 4-Amino-5-chloro-6-methoxycarbonyl-2-(5-methylbenzothiophen-2-yl)-pyrimidine]: 30%.
